Measurements: patent publication US6136798A, “Compounds inhibiting the association of the PDGF receptor and phosphatidylinositol 3-kinase and their use” (Warner-Lambert Company, priority 1999, dated 2000)

Key:
[1] = biological target: T1, PDGF-β receptor tyrosine kinase intracellular domain / p85 SH2 fusion protein (PDGF Receptor/PI3-Kinase Association) (Homo sapiens, UniProt P27986); experiment: p85 SH2--PDGF-β Receptor Binding Assay; settings: [35S]p85 C-terminal SH2 fusion protein binding to phosphorylated PDGF-β receptor; 25° C., 20 minutes
T1 construct: The pGEX plasmid expressing the carboxy-terminal SH2 of the p85 subunit of PI3-kinase; made in house; host or cells: p85 SH2-GST: E. coli; PDGF-β receptor intracellular domain: SF9 insect cells, obtained from L. T. Williams (UCSF)
T1 sequence (P27986 624-718 limits assumed): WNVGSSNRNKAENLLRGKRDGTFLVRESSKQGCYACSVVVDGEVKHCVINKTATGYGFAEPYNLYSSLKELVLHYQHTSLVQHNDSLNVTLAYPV
Method: The pGEX plasmid expressing the carboxy-terminal SH2 of the p85 subunit of PI3-kinase in a glutathione-s-transferase (GST) fusion protein was used in these studies. Expression and purification of the fusion protein was performed as previously described by Zhu, et al., J. Biol. Chem., 1993;268:1175. To prepare [^35 S]p85 fusion proteins, a 125 mL overnight culture of E. coli expressing the p85-GST fusion protein was added to 1000 mL of LB broth containing 100 μg/mL ampicillin. The cultures were incubated at 37° C. until reaching a density of A600 =1.0. 1 mM of isopropyl-β-D-thiogalactoside was added and 15 minutes later, 10 mCi of trans ^35 S-label was added and cultures incubated for an additional 3 hours at 37° C. The cells were then lysed by sonication and fusion proteins purified over glutathione-agarose beads.
Lysates from SF9 insect cells expressing the PDGF-β receptor tyrosine kinase intracellular domain, obtained from L. T. Williams at the University of California at San Francisco, were incubated with M2 affinity beads and the complexes were washed several times with Tris buffer containing protease inhibitors and sodium orthovanadate. Complexes were centrifuged and resuspended in N-[2-hydroxyethyl]piperazine-N'-[2-ethane sulfonic acid] (HEPES) buffer containing 1 mM adenosine triphosphate (ATP), 10 mM MnCl2, and 5 mM MgCl2 to stimulate phosphorylation of the PDGF receptor.
Binding of [^35 S]p85 SH2 fusion proteins to the phosphorylated PDGF-β receptor tyrosine kinase intracellular domain was assayed in Hepes buffer containing ethylene diamine tetraacetic acid (EDTA), NP-40 and […] of each of the protease inhibitors, PMSF, pepstatin, leupeptin, and aprotinin. Binding assays were performed in 96-well millipore filter plates in a final volume of […] of HEPES buffer containing 135 μL phosphorylated PDGF receptor-beads complex (1 μg receptor/well), 10 μL [^35 S]p85 SH2 fusion protein (30,000 cpm/well), and 5 μL of peptide inhibitor as indicated. Samples were incubated at 25° C. for 20 minutes with continuous rocking. Binding was terminated by filtration through the filter plates using a millipore multiscreen filtration manifold Millipore, Bedford, Mass.). Filter plates were washed four times with 0.15 mL Hepes buffer followed by the addition of 40 μL hi-load scintillant and radioactivity retained on the filters was counted in a Wallac 1450 Microbeta counter (Wallac Inc, Gaithersburg, Md.). Total binding was defined as [^35 S]p85 fusion protein bound to the PDGF-β receptor-bead complex retained on the filter plate after washing. Nonspecific binding was defined as radioactivity retained on the filter plates in the presence of excess unlabeled p85 fusion protein. Specific binding was defined as total binding minus nonspecific binding. IC50 values were calculated by weighted nonlinear regression curve fitting.

[2] = biological target: T2, PDGF Receptor/PI 3-Kinase association in rat aortic smooth muscle cells (Rattus norvegicus, UniProt Q63787); experiment: PDGF Receptor/PI 3-Kinase Cell Association Assay; assay type: cell-based; settings: RASMC, PDGF-BB 30 ng/mL 5 minutes; for inhibition at 25 µM: printed in the Cellular IC50 column, read-out: Inhibition of PDGF Receptor/PI3-Kinase Association (Cellular)
T2 construct: endogenous in cells; host or cells: rat aortic smooth muscle cells (RASMC), primary, passages 5 to 20
T2 sequence (Q63787 whole entry): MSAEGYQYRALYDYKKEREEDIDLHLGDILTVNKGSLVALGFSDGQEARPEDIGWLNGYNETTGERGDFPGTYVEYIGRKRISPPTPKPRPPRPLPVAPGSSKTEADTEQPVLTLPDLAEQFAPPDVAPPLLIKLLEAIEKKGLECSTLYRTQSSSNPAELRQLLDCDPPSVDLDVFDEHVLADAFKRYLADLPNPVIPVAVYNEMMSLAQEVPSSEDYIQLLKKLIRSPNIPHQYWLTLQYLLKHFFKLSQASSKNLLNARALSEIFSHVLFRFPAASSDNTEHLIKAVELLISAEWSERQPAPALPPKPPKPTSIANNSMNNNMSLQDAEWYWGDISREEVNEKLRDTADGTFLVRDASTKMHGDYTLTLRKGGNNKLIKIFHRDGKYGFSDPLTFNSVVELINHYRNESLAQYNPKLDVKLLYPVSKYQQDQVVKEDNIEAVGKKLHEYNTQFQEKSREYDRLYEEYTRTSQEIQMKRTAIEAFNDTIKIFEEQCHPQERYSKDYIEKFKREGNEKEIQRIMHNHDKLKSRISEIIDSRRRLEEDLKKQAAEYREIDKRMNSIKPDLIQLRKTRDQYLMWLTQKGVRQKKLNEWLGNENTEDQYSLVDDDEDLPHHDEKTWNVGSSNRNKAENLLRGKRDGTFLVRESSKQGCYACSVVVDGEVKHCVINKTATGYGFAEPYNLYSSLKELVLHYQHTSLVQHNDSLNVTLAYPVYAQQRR
Method: Smooth muscle cells were isolated from the thoracic aorta of rats (RASMC) and explanted according to the method of Ross, J. Biol. Chem., 1971;30:172-86. Cells were grown in Dulbecco's modified Eagle's medium (DMEM, Gibco) containing 10% fetal calf serum (FBS, Hyclone, Logan, Utah), 1% glutamine (Gibco) and 1% penicillin/streptomycin (Gibco). Cells were identified as smooth muscle cells by their "hill and valley" growth pattern and by fluorescent staining with a monoclonal antibody specific for SMC […] (Sigma). RASMC were used between passages 5 and 20 for all experiments. Test compounds were prepared in dimethylsulfoxide (DMSO) in order to achieve consistency in the vehicle and to ensure compound solubility. Appropriate DMSO controls were simultaneously evaluated with the test compounds.
Rat aortic smooth muscle cells were grown to confluency in 100 mm dishes. Growth medium was removed and replaced with serum-free medium and cells were incubated at 37° C. for an additional 24 hours. Test compounds were then added directly to the medium and cells incubated for an additional 24 hours. After 24 hours PDGF-BB was added at a final concentration of 30 ng/mL for 5 minutes at 37° C. to stimulated autophosphorylation of the PDGF receptor and association of PI 3-kinase to the phosphorylated receptors. […] Following incubation with ^125 I-protein-A, p85 protein levels were detected by phosphorimage analysis and protein bands quantitated via densitometry. […]

| SMILES | IC50 [1] | inhibition at 25 µM [2] | IC50 ([2]; 24 h compound, p85 immunoblot, read-out: Cellular IC50) |
| --- | --- | --- | --- |
| CCCCCCN(CCCCCC)C(=O)[C@H](C)NC(=O)[C@@H](NC(=O)[C@H](Cc1ccc(C(F)(F)P(=O)(O)O)cc1)NC(C)=O)C(C)C [Example 1, [1S-[1R*[R*(R*)]]]-[(4-{2-Acetylamino-2-[1-(1-dihexylcarbamoyl-ethylcarbamoyl)-2-methyl-propylcarbamoyl]-ethyl}-phenyl)-difluoro-methyl]-phosphonic acid] | 450 ± 40 nM |  |  |
| CCCCCN(CCCCC)C(=O)[C@H](C)NC(=O)[C@@H](NC(=O)[C@H](Cc1ccc(C(F)(F)P(=O)(O)O)cc1)NC(C)=O)C(C)C [Example 2, [1S-[1R*[R*(R*)]]]-[(4-{2-Acetylamino-2-[1-(1-dipentylcarbamoyl-ethylcarbamoyl)-2-methyl-propylcarbamoyl]-ethyl}-phenyl)-difluoro-methyl]-phosphonic acid] | 290 ± 80 nM | 30% |  |
| CCCCCCCCN(CCCCCCCC)C(=O)[C@H](C)NC(=O)[C@@H](NC(=O)[C@H](Cc1ccc(C(F)(F)P(=O)(O)O)cc1)NC(C)=O)C(C)C [Example 3, [1S-[1R*[R*(R*)]]]-[(4-{2-Acetylamino-2-[1-(1-dioctylcarbamoyl-ethylcarbamoyl)-2-methyl-propylcarbamoyl]-ethyl}-phenyl)-difluoro-methyl]-phosphonic acid] | 12200 ± 900 nM |  |  |
| CCCCCCN(CCCCCC)C(=O)[C@H](C)NC(=O)[C@@H](NC(=O)[C@H](Cc1ccc(OP(=O)(O)O)cc1)NC(C)=O)C(C)C [Example 4, [1S-[1R*[R*(R*)]]]-Phosphoric acid mono-(4-{2-acetylamino-2-[1-(1-dihexylcarbamoyl-ethylcarbamoyl)-2-methyl-propylcarbamoyl]-ethyl}-phenyl) ester] | 80 ± 10 nM | 27% |  |
| CCCCN(CCCC)C(=O)[C@H](C)NC(=O)[C@@H](NC(=O)[C@H](Cc1ccc(OP(=O)(O)O)cc1)NC(C)=O)C(C)C [Example 6, [1S-[1R*[R*(R*)]]]-Phosphoric acid mono-(4-{2-acetylamino-2-[1-(1-dibutylcarbamoyl-ethyl-carbamoyl)-2-methyl-propylcarbamoyl]-ethyl}-phenyl) ester] | 1600 ± 320 nM |  | 37500 nM |
| CCCCCN(CCCCC)C(=O)[C@H](C)NC(=O)[C@@H](NC(=O)[C@H](Cc1ccc(OP(=O)(O)O)cc1)NC(C)=O)C(C)C [Example 8, [1S-[1R*[R*(R*)]]]-Phosphoric acid mono-(4-{2-acetylamino-2-[1-(1-dipentylcarbamoyl-ethyl-carbamoyl)-2-methyl-propylcarbamoyl]-ethyl}-phenyl) ester] | 220 nM |  |  |
| CCCCCCCCN(CCCCCCCC)C(=O)[C@H](C)NC(=O)[C@@H](NC(=O)[C@H](Cc1ccc(OP(=O)(O)O)cc1)NC(C)=O)C(C)C [Example 10, [1S-[1R*[R*(R*)]]]-Phosphoric acid mono-(4-{2-acetylamino-2-[1-(1-dioctylcarbamoyl-ethyl-carbamoyl)-2-methyl-propylcarbamoyl]-ethyl}-phenyl) ester] | 3500 ± 500 nM |  |  |
